{"source": "patent US20210206770A1", "about": "“Co-Crystal of an Orally Available Janus Kinase Inhibitor” (Sandoz AG, priority 2017, published 2021)", "key": {"[1]": {"assay": "Dissolution testing, Experiment 1: stirring in water at room temperature", "format": "physicochemical", "conditions": "5 mg Form A or same molar amount of co-crystal stirred at room temperature in 100 ml water", "source_text": "Experiment 1 clearly indicated significant and faster dissolution of the barcitinib lactic acid co-crystal of the invention compared to pure cristallin baritinib form A. However, no quantitative data could be derived from this setup."}, "[2]": {"assay": "Differential scanning calorimetry (thermal stability)", "format": "physicochemical", "conditions": "heating rate 10 K/min, up to melting at about 168-170° C.", "procedure": "The baricitinib lactic acid co-crystal according to the present invention was investigated by DSC, which was performed with a DSC 7 (Perkin-Elmer, Norwalk, Conn., USA) using a Pyris 2.0 software. Approximately 4±0.0005 mg sample (using a UM3 ultramicrobalance, Mettler, Greifensee, CH) were weighed into Al-Pans (25 μl) and sealed with a cover, which was perforated by a needle. Dry nitrogen was used as the purge gas (purge: 20 ml/min). Heating rate: 10 K/min."}, "[3]": {"assay": "Dissolution testing, Experiment 2: photometric (310 nm) dissolution in phosphate buffer pH 6.8", "format": "physicochemical", "conditions": "50 mL phosphate buffer pH 6.8, 0.01% Tween 80, 37° C.", "procedure": "We used this to quantify baricitinib concentrations. Light absorption was measured with a Shimadzu UV-1800 double beam photometer at 310 nm in a lcm quartz glass cuvette.\nTo counterbalance the acidifying effect of the lactic acid from the barcitinib lactic acid co-crystal, the experiments were performed in a phosphate buffer solution at a constant pH of 6.8 ([…]; 0.01 mol/L). Furthermore, 0.01% Tween 80 was added to the buffer solution in order to avoid potential agglomeration during the dissolution test.\nExperiment 2: 20 mg of crystalline baricitinib free base Form A or 24.85 mg of the baricitinib lactic acid co-crystal of the present invention were stirred in a closed vessel in 50 mL of the buffer solution at 37° C. After 1, 5, 10, 15, 20, 30, 45 and 75 minutes filtered samples of the suspension were taken and diluted 1:4 with buffer solution to reach an absorption value within the calibration curve."}, "[4]": {"conditions": "EPAR, cited from earlier work"}}, "data": [{"molecule": "CCS(=O)(=O)N1CC(CC#N)(n2cc(-c3ncnc4[nH]ccc34)cn2)C1", "note": "[baricitinib free base Form A, 2-[1-(Ethylsulfonyl)-3-[4-(7H-pyrrolo[2,3-d]pyrimidin-4-yl)-1H-pyrazol-1-yl]azetidin-3-yl]acetonitrile, reference compound]", "values": [{"measurement": "dissolution in water", "setting": "[1]", "value": "no detectable dissolution"}]}, {"molecule": "CCS(=O)(=O)N1CC(CC#N)(n2cc(-c3ncnc4[nH]ccc34)cn2)C1", "note": "[baricitinib lactic acid co-crystal]", "values": [{"measurement": "dissolution in water", "setting": "[1]", "value": "a detectable and significant amount dissolved within minutes"}, {"measurement": "thermal stability (DSC)", "setting": "[2]", "value": "neither phase changes nor desolvation events are detectable until the sample melts"}, {"measurement": "concentration of dissolved baricitinib at 1 minute compared to baricitinib free base form A", "setting": "[3]; 1 minute", "value": "three time higher"}, {"measurement": "dissolution rate compared to baricitinib free base form A", "setting": "[3]; FIG. 7", "value": "dissolved more quickly"}]}, {"molecule": "CCS(=O)(=O)N1CC(CC#N)(n2cc(-c3ncnc4[nH]ccc34)cn2)C1", "note": "[baricitinib, 2-[1-(Ethylsulfonyl)-3-[4-(7H-pyrrolo[2,3-d]pyrimidin-4-yl)-1H-pyrazol-1-yl]azetidin-3-yl]acetonitrile]", "values": [{"measurement": "solubility in 0.1 N HCl", "setting": "[4]; 0.1 N HCl", "value": "only slightly soluble"}, {"measurement": "solubility in water", "setting": "[4]; water", "value": "practically insoluble"}]}]}
